# Laboratory results taken from US20070021391A1, “Preventive/remedy for urinary disturbance” (priority 2003, published 2007).
# Read-outs that look alike come from different tables or passages of the source.
# How the values were obtained:
# [1] = target: T1, acetylcholine esterase of human erythrocyte origin (Homo sapiens, UniProt P22303); experiment: biochemical; type: biochemical
# T1 construct: acetylcholine esterase of human erythrocyte origin; purchased Sigma, St. Louis, Mo., USA; host or cells: human erythrocytes
# T1 sequence (P22303 32-617 isoform P22303-2 limits assumed): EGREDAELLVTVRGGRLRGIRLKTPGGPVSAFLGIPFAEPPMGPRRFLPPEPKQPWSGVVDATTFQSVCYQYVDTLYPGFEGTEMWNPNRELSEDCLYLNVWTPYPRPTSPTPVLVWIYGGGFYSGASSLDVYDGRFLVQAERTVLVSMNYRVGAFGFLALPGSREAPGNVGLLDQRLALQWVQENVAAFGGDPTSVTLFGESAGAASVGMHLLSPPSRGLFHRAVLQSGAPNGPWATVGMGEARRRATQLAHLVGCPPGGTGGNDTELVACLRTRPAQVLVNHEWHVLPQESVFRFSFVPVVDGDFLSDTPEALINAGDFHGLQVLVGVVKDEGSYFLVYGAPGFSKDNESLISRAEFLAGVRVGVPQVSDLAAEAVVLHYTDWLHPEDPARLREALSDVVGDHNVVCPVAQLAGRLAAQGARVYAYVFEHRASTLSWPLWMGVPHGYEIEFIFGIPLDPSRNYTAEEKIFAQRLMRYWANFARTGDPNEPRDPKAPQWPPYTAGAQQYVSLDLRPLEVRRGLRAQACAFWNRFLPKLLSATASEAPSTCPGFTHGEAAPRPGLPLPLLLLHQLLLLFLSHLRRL
# Method: (§1) The AChE inhibitory activity and the BuChE inhibitory activity were determined by a thiocholine method (Ellman method) using acetylcholine esterase of human erythrocyte origin (Sigma, St. Louis, Mo., USA) and butyrylcholine esterase of human serum origin (Biogenesis, Poole, UK). Acetylcholine esterase or butyrylcholine esterase was diluted to a concentration of 0.2 IU/mL with 80 mM tris-HCL buffers (pH=7.4) containing 0.3% bovine serum albumin (BSA) to prepare an enzyme preparation. […] The stock solution was diluted at 3-fold common ratio with 10% DMSO and 80 mM tris-HCl buffers containing 0.3% BSA. On a 96 wells microplate, 20 μL of the drug solution with a given concentration, 30 μL of 80 mM tris-HCl buffers containing 0.3% BSA and 50 μL of the enzyme preparation were distributed, and incubated at room temperature for 1 hour after shaking for 10 seconds. […] For the respective drugs, the test was repeated twice. The % of control of the increase in light absorption was calculated at each concentration with respect to the respective drugs. % of control=increase in light absorption of drug/increase in light absorption of control×100
# Acetylcholine esterase [2] = target: Acetylcholine esterase (Electrophorus electricus, UniProt O42275); conditions: Electric eel; Literature 5 (tacrine line prints 6); read-out: Acetylcholine esterase inhibitory activity (IC50); cited from earlier work
# Chain of Acetylcholine esterase (Electrophorus electricus, UniProt O42275) (O42275 24-633): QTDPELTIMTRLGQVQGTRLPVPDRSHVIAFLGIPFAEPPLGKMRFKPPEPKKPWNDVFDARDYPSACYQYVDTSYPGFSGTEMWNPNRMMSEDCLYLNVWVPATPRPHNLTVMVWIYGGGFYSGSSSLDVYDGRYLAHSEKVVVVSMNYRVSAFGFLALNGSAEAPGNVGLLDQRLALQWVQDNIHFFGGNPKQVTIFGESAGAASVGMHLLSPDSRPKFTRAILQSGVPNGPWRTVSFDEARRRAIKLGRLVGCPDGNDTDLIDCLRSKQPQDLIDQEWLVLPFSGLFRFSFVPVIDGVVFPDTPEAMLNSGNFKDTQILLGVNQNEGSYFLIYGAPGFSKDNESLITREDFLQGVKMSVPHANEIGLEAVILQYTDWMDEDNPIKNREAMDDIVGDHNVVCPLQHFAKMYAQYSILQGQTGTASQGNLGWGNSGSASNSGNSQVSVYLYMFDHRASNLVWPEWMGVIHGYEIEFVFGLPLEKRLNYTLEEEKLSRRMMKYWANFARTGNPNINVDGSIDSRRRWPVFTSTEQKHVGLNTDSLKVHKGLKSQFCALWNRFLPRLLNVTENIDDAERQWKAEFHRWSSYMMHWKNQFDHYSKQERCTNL
# Butyrylcholine esterase [3] = target: Butyrylcholine esterase (Equus caballus, UniProt P81908); conditions: read-out: Butyrylcholine esterase inhibitory activity (IC50); cited from earlier work
# Chain of Butyrylcholine esterase (Equus caballus, UniProt P81908) (P81908 whole entry): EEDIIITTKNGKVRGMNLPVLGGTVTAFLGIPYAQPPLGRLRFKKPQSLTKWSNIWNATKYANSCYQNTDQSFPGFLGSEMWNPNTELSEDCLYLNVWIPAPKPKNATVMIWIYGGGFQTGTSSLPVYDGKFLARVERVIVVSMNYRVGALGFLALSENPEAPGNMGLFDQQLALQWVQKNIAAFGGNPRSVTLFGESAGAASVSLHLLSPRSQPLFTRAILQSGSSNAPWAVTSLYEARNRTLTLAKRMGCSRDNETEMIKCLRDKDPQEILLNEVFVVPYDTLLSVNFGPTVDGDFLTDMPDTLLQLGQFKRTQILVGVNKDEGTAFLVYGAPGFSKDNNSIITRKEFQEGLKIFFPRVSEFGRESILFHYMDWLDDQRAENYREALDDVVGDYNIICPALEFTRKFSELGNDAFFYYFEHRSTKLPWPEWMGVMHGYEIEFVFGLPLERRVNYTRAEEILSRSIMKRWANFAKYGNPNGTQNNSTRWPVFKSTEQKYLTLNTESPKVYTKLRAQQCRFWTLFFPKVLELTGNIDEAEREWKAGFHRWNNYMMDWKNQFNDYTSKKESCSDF
# [4] = target: T2, butyrylcholine esterase of human serum origin (Homo sapiens, UniProt P06276); experiment: biochemical; type: biochemical
# T2 construct: butyrylcholine esterase of human serum origin; purchased Biogenesis, Poole, UK; host or cells: human serum
# T2 sequence (P06276 29-602): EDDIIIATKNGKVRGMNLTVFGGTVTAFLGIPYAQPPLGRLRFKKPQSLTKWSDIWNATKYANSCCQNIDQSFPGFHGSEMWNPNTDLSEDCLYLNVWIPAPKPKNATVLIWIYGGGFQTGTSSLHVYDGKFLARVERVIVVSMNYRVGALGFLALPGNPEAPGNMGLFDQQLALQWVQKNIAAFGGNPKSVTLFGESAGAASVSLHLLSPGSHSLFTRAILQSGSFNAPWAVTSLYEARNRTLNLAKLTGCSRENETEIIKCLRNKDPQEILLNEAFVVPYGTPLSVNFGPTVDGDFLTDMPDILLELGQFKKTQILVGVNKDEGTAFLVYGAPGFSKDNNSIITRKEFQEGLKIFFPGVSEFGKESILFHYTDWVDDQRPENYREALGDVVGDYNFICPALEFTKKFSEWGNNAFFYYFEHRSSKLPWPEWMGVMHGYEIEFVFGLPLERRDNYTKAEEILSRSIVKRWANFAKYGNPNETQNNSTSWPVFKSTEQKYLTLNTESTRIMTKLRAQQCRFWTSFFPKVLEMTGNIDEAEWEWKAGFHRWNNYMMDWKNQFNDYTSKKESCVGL
# Method: as §1
# [5] = test system: Hartley male guinea pig, urethane anesthesia; experiment: Pressure/flow study using guinea pig (Example 3); type: in vivo; conditions: for Amount of urination, proportion for value before administration (%) / At maximum urine flow rate Inner pressure of bladder, proportion for value before administration (%) / Maximum urine flow rate, proportion for value before administration (%): i.v.; for Bladder compliance, proportion for value before administration (%) / Bladder volume, proportion for value before administration (%): iv; for change of the parameters at urination and at collection of urine (text): intravenous administration
# Method: A Hartley male guinea pig of 5 weeks old (Japan SLC) was used. After urethane anesthesia, the medial incision of the lower abdomen was carried out, and the bladder was exposed. Two injection needles (20G) with which a polyethylene tube (PE-100) was linked were inserted in the bladder, and one needle was used for injection of saline and another needle was used for measurement of the inner pressure of the bladder. The injection of saline was continuously carried out at a rate of 18 mL/h using a syringe pump (SP-100S, JMS, and Hiroshima), the injection was stopped after intermittent urination was confirmed 3 times at minimum, and the saline in the bladder was removed by suction. Injection was started again, and the injection was stopped when the raise of the inner pressure of the bladder just before urination was confirmed. The amount of urine excreted was measured by an electronic weighing machine (HX-400, A&D, and Tokyo) and the inner pressure of the bladder was measured using a pressure transducer (AP641G, NIPPON KODEN Corporation). The analogue data of the weight of urine and the inner pressure of the bladder were inputted in a multi-channel data analyzer (MP-100A-CE, Biopac systems), and analyzed by a proprietary software (Acqknowledge, Biopac systems). The sampling interval of data was 0.1 second and a low pass filter was applied to the data of discharge amount and urine flow rate at 0.5 Hz in order to remove noise. A delay time of 0.1 second in weighing the urine was rectified, and the urine flow rate was determined by differentiating the value of discharge amount. After a value before twice administration of the drug was measured, the drugs (the compound A, distigmine, neostigigmine and bethanechol) were intravenously administrated. Saline in the bladder was extracted after 10 minutes of administration of the compound A, bethanechol and neostigigmine and after 30 minutes of administration of distigmine, and injection was started again to measure data. The drugs were dissolved with distilled water so that administration volume was 0.5 mL/kg. Parameters (bladder volume, the amount of urination, the maximum urine flow rate, the inner pressure of the bladder at the maximum urine flow, bladder compliance) below were measured. The bladder compliance was calculated from intersection point (the threshold of bladder volume, threshold pressure) which was obtained by determining regression line in the respective curves of the inner pressure of the bladder at collection of urine and urinary reflex. The change rate before and after administration of the drug was calculated for the respective parameters and the calibration of significant difference was carried out by a solvent administration group and Dunnett calibration (Table 6 and Table 7).
# bladder muscle = test system: bladder muscle; parameters: species or system guinea pig; conditions: for Tension (%): 30 minutes, change of basic tension, 100 mM KCl contraction = 100%
# [6] = test system: butyrylcholine esterase/acetylcholine esterase; conditions: Literature 7; species not given; cited from earlier work
# Butyrylcholine esterase [7] = target: Butyrylcholine esterase (Rattus norvegicus, UniProt Q9JKC1); conditions: Literature 6, read-out: Butyrylcholine esterase inhibitory activity (IC50); cited from earlier work
# Chain of Butyrylcholine esterase (Rattus norvegicus, UniProt Q9JKC1) (Q9JKC1 24-597): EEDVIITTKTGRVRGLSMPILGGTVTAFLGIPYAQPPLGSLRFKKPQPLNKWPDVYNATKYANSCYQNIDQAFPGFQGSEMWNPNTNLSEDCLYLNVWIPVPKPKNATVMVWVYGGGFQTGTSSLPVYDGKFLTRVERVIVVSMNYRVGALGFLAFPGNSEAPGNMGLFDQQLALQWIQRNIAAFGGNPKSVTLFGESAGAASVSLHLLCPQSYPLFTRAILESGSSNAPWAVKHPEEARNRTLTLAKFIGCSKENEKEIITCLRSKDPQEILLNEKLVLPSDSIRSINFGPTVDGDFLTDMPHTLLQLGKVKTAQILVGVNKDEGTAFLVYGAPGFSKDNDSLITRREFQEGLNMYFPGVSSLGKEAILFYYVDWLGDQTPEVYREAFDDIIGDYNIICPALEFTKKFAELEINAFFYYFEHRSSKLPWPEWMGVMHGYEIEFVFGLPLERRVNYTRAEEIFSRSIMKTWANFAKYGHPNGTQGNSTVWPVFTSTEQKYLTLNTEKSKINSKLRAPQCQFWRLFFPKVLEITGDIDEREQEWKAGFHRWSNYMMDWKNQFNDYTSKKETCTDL
# Acetylcholine esterase [8] = target: T3, Acetylcholine esterase (Rattus norvegicus, UniProt P37136); conditions: Literature 6, read-out: Acetylcholine esterase inhibitory activity (IC50); cited from earlier work
# T3 sequence (P37136 32-614): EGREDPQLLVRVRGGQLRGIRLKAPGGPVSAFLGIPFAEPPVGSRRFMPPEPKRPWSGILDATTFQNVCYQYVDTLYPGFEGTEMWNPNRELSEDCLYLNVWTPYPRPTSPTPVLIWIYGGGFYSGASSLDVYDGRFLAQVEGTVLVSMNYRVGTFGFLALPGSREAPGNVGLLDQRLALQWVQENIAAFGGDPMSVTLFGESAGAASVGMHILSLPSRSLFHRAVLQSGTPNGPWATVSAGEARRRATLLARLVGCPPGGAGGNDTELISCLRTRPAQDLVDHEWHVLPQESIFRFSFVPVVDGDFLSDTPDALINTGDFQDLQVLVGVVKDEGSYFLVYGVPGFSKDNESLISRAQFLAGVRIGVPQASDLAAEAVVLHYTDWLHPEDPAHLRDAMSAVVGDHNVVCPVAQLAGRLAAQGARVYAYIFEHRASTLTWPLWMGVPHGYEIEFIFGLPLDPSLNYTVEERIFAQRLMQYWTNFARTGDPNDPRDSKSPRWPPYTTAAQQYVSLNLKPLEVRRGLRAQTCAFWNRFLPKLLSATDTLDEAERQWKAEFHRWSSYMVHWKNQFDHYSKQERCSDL
compound,measurement,setting,value
CN(C)C(=O)Oc1cccc([N+](C)(C)C)c1 [Neostigigmine],inhibition of the activity of human acetylcholine esterase,[1],inhibited the activity of human acetylcholine esterase
same,IC50,Acetylcholine esterase [2],5 µM
same,IC50,Butyrylcholine esterase [3],0.1 µM
same,IC50,[4],0.6 µM
same,inhibitory activity for human butyrylcholine esterase,[4],inhibitory activity was confirmed
same,"Amount of urination, proportion for value before administration (%)",[5]; 0.01 mg/kg,107.7 ± 17.2%
same,"At maximum urine flow rate Inner pressure of bladder, proportion for value before administration (%)",[5]; 0.01 mg/kg,112.3 ± 4.2%
same,"Maximum urine flow rate, proportion for value before administration (%)",[5]; 0.01 mg/kg,79.4 ± 11.5%
same,"Bladder compliance, proportion for value before administration (%)",[5]; 0.01 mg/kg,61.5 ± 8.6%
same,"Bladder volume, proportion for value before administration (%)",[5]; 0.01 mg/kg,81.1 ± 8.9%
same,"Amount of urination, proportion for value before administration (%)",[5]; 0.03 mg/kg,91.6 ± 14.9%
same,"At maximum urine flow rate Inner pressure of bladder, proportion for value before administration (%)",[5]; 0.03 mg/kg,128.5 ± 10.9 %
same,"Maximum urine flow rate, proportion for value before administration (%)",[5]; 0.03 mg/kg,67.2 ± 9.9%
same,"Bladder compliance, proportion for value before administration (%)",[5]; 0.03 mg/kg,59.4 ± 9.1 %
same,"Bladder volume, proportion for value before administration (%)",[5]; 0.03 mg/kg,86.4 ± 7.5%
same,"Amount of urination, proportion for value before administration (%)",[5]; 0.1 mg/kg,58.3 ± 16.4%
same,"At maximum urine flow rate Inner pressure of bladder, proportion for value before administration (%)",[5]; 0.1 mg/kg,130.9 ± 8.7 %
same,"Maximum urine flow rate, proportion for value before administration (%)",[5]; 0.1 mg/kg,54.0 ± 13.8%
same,"Bladder compliance, proportion for value before administration (%)",[5]; 0.1 mg/kg,31.7 ± 7.1 %
same,"Bladder volume, proportion for value before administration (%)",[5]; 0.1 mg/kg,66.5 ± 14.7%
same,change of the parameters at urination and at collection of urine (text),[5],lowered the bladder compliance significantly
same,change of the parameters at urination and at collection of urine (text),[5]; listed as neostigigmine,did not show clear action for the amount of urination and the maximum urine flow rate and increased urination pressure significantly
same,Tension (%),bladder muscle; 0.01 μM,−0.95 ± 0.37%
same,Tension (%),bladder muscle; 0.03 μM,−0.31 ± 0.25%
same,Tension (%),bladder muscle; 0.1 μM,1.52 ± 0.37 %
same,Tension (%),bladder muscle; 0.3 μM,6.87 ± 1.25 %
same,Tension (%),bladder muscle; 1 μM,17.78 ± 2.25 %
same,effect on basic tension,bladder muscle; drug alone,increased basic tension significantly and concentration-dependently
CCc1ccccc1NC(=O)Oc1ccc2c(c1)[C@]1(C)CCN(C)O[C@@H]1N2C [Ganstigmine],Selectivity (butyrylcholine esterase/acetylcholine esterase),[6],115
O=C(CCC1CCN(Cc2ccccc2)CC1)c1ccc2c(c1)NCCCC2 [TAK-147],IC50,Butyrylcholine esterase [7],24 µM
same,IC50,Acetylcholine esterase [8],0.051 µM
